The test system of data set [1] is male spontaneously hypertensive rat. Briefly: Antihypertensive action (systolic pressure by tail-cuff method). The format is in vivo. As to conditions: 3 mg/kg p.o., dissolved in brine, at 1 hour from the oral administration. The protocol:
The compound (hydrochloride) of the present invention obtained in Example 1 was dissolved in brine, and forcibly administered (p.o.) to male spontaneously hypertensive rat at 3 mg/kg. The systolic pressure was measured with a programmable sphygmonanometer (PS-200A, manufactured by Riken Kaihatsu, Japan) by tail-cuff method [Ohkubo H et al. Proc. Natl. Acad. Sci. USA, 87, 5153-5157 (1990)].

The subject of another data set is rat. Briefly: Toxicity by single administration to rat. The format is in vivo. As to conditions: single administration of 450 mg/kg to rat. From the text: Toxicity by single administration to rat

Each structure is given as a SMILES string.

Results on one molecule are retold here after patent publication EP0609518A1, “Optically active aminopyridine derivative and use thereof” (THE GREEN CROSS CORPORATION, priority 1992, dated 1994).

`Cl.N#CN=C(Nc1ccc(N)nc1)N[C@@H]1C[C@@H]2CC[C@H]1C2` [hydrochloride of (+)-N-(6-amino-3-pyridyl)-N''-cyano-N'-[(1S] [hydrochloride of (+)-N-(6-amino-3-pyridyl)-N''-cyano-N'-[(1S,2R,4R)-2-norbornyl]guanidine] yielded a vasodepressor action in data set [1] of 33%. Also, the death case result with rat is on record as “did not result in a death case”.
